Experiments:
Assay type in all cases: cell-based, BALB/c mouse
CD8 T cell clone H5 (Ts) = assay: BUdR incorporation ELISA proliferation assay, Ts clone H5; conditions: Table 4
Method: (§1) The epitopes recognized by 15 iLRP-reactive T cell clones derived from either naive BALB/c mice, BALB/c mice bearing MCA1315 fibrosarcoma tumors, or from BALB/c mice immunized with either 1 or 10 μg of recombinant murine iLRP were determined by testing the proliferation of those clones to overlapping peptides spanning the region of the iLRP molecule recognized by each clone in the presence of IL-2, as a growth factor for T cells and irradiated, T cell-depleted, syngeneic spleen cells as antigen-presenting cells. Proliferation was measured through ELISA determination of 5-bromodeoxyuridine incorporation during culture.
(§2) More specifically, the epitope-specificity of the iLRP-specific Th1, Tc, and Ts clones was determined using a modification of the 5′-bromodeoxyuridine (BudR) incorporation ELISA technique described in Rohrer, J. W., A. L. Barsoum, D. L. Dyess, J. A. Tucker, and J. H. Coggin, Jr. 1999. Human breast carcinoma patients develop clonable oncofetal antigen-specific effector and regulatory T lymphocytes. J. Immunol. 162:6880, using the Biotrak BUdR incorporation assay (Amersham, Arlington Heights, Ill.). […] When the required color density was reached, the reaction was stopped by adding 25 μl of 1M sulfuric acid to each well and the plate read on a microELISA reader at 450 nm. […]

[1] = test system: iLRP-specific T cell clone L1 (CD8 Ts); assay: BUdR incorporation ELISA proliferation assay, Ts clone L1; conditions: Table 3; for BUdR Incorporation (A450) of iLRP-specific T cell clone L1 cells, Expt. 1 / BUdR Incorporation (A450) of iLRP-specific T cell clone L1 cells, Expt. 2: 100 ng/well stimulant with irradiated syngeneic spleen cells (APC), 48 h culture
Method: as §1
(§3) More specifically, the epitope-specificity of the iLRP-specific Th1, Tc, and Ts clones was determined using a modification of the 5′-bromodeoxyuridine (BudR) incorporation ELISA technique described in Rohrer, J. W., A. L. Barsoum, D. L. Dyess, J. A. Tucker, and J. H. Coggin, Jr. 1999. Human breast carcinoma patients develop clonable oncofetal antigen-specific effector and regulatory T lymphocytes. J. Immunol. 162:6880, using the Biotrak BUdR incorporation assay (Amersham, Arlington Heights, Ill.). Briefly, at the time of restimulation of the clones, a portion of the cloned T cells were assayed for proliferation to antigen-presenting cells (APC) and various iLRP peptides. The assay was performed with 10,000 viable cloned T cells/well plus […] irradiated syngeneic spleen cells (APC) plus 100 ng/well of intact iLRP/OFA protein or the various truncated iLRP/OFA proteins or the various iLRP/OFA peptides in Iscove's modified Dulbecco's medium (IMDM) containing 2 mM L-glutamine, 100 U/ml of penicillin G, 100 μg of streptomycin sulfate, and 10% fetal calf serum. The cells were cultured for a total of 48 hours. After 24 hours of culture 5′-bromodeoxyuridine was added to a final concentration of 10 μM/well. The cells were cultured for another 24 hours. At the end of the last 24 hours of incubation, the plates were centrifuged at 300×g for 10 min, and the labelling medium removed. The cells were then dried at 60° C. for 1 hour. The cells were fixed with an ethanol fixative provided in the Biotrak kit for 30 min at room temperature, fixative was removed, and the wells were coated with blocking buffer (1% protein in 50 mM Tris-HCl, 150 mM NaCl, pH 7.4) and incubated for 30 min at room temperature. The blocking buffer was removed, 100 μl of 1:100 diluted peroxidase-labelled anti-BUdR antibody was added to each well and the plates were incubated for 90 min at room temperature. The antibody solution was removed, and the wells washed three times with 300 μl/well of wash buffer. 200 μl of 3,3′, 5,5′-tetramethylbenzidine in […] DMSO was added to each well and the plate was covered and incubated at room temperature while oscillating gently for 5-30 min. When the required color density was reached, the reaction was stopped by adding 25 μl of 1M sulfuric acid to each well and the plate read on a microELISA reader at 450 nm.
(§4) Each time the assay was done, clones were stimulated by APC and intact iLRP/OFA as a positive control. Cloned T cells were also cultured in the presence of only APC in IMDM or in the presence of APC and an iLRP/OFA peptide or truncated iLRP/OFA known not to stimulate the clones being tested. These served as negative controls. In wells where BUdR was incorporated (the iLRP/OFA stimulates proliferation of the T cells), the A450 was at least 10-fold and often approximately 50-fold higher than the negative controls. Because the Ts cells always presented with apparently low affinity T cell antigen receptors, their BUdR incorporation gave A450 values about 10 times higher than the negative controls (e.g., about 0.2 vs. 0.02), but about 5 times lower than the Th1 or Tc clones (e.g., usually about 0.9).
Overlapping 12mer peptides of the first 25 amino acids of murine iLRP were produced. Thus, peptides 1-4 corresponded to amino acid residues 1-12, 5-16, 9-20 and 17-28 of murine iLRP. […]

CD8 T cell clone M3 (Tc) = assay: BUdR incorporation ELISA proliferation assay, Tc clone M3; conditions: Table 4
Method: as §1, §2

Th1 clone H1 = assay: BUdR incorporation ELISA proliferation assay, Th1 clone H1; conditions: Table 12
Method: as §1, §2

[2] = test system: iLRP-specific T cell clone L5 (Tc); assay: BUdR incorporation ELISA proliferation assay, Tc clone L5; conditions: for BudR Incorporation (A450), T cell clone L5 (Tc): Table 8, overlapping 12-mers of iLRP 136-166, 100 U/ml IL-2
Method: as §1, §3
as §4, with “0.9). […]” for “0.9).”

[3] = test system: iLRP-specific Th1, Tc, and Ts clones; assay: BUdR incorporation proliferation assay, comparison across iLRP-specific T cell clone types; conditions: Table 14; type of T cell clone reactive with the 12-mer
Method: as §1, §3, §4
Determination of the portion of the truncated iLRP/OFA protein or peptide reacted to by a given clone was done by analysis of the proliferation pattern to the various truncated proteins or peptides. […]

[4] = test system: iLRP-specific T cell clone H2 (Ts); assay: BUdR incorporation ELISA proliferation assay, Ts clone H2; conditions: for BudR Incorporation (A450), T cell clone H2 (Ts): Table 8, overlapping 12-mers of iLRP 136-166, 100 U/ml IL-2
Method: as §1, §3
as §4, with “0.9). […]” for “0.9).”

[5] = test system: iLRP-specific T cell clone H4 (Ts); assay: BUdR incorporation ELISA proliferation assay, Ts clone H4; conditions: for BudR Incorporation (A450), T cell clone H4 (Ts): Table 8, overlapping 12-mers of iLRP 136-166, 100 U/ml IL-2
Method: as §1, §3
as §4, with “0.9). […]” for “0.9).”

[6] = test system: iLRP-specific T cell clone H3 (Th1); assay: BUdR incorporation ELISA proliferation assay, Th1 clone H3; conditions: for BudR Incorporation (A450), T cell clone H3 (Th1): Table 8, overlapping 12-mers of iLRP 136-166, 100 U/ml IL-2
Method: as §1, §3
as §4, with “0.9). […]” for “0.9).”

[7] = test system: iLRP-specific T cell clone L4 (Tc); assay: BUdR incorporation ELISA proliferation assay, Tc clone L4; conditions: for BudR Incorporation (A450), T cell clone L4 (Tc): Table 8, overlapping 12-mers of iLRP 136-166, 100 U/ml IL-2; for Proliferation of Tc clone L4 (in words): text on Table 8
Method: as §1, §3
as §4, with “0.9). […]” for “0.9).”

[8] = test system: CD8 iLRP-specific T cell clone M11 (Ts); assay: BUdR incorporation ELISA proliferation assay, Ts clone M11; conditions: Table 5
Method: as §1, §2

[9] = Table 7, stimulated by a.a.'s 136-166 sequence or controls

Substance	BudR Incorporation (A450), T cell clone L5 (Tc) [2]	Reactive T cell clones [3]	BudR Incorporation (A450), T cell clone H2 (Ts) [4]	BudR Incorporation (A450), T cell clone H4 (Ts) [5]	BudR Incorporation (A450), T cell clone H3 (Th1) [6]	BudR Incorporation (A450), T cell clone L4 (Tc) [7]	further results
QMEQYIYKRKSD [P3 (aa 33-44)]	–	–	–	–	–	–	Proliferation of clone H5 (in words) (CD8 T cell clone H5 (Ts)): proliferated to iLRP peptides 3 and 4 equally well
QMKEEDVLKLLAA [Peptide 3]	–	–	–	–	–	–	Proliferation of clone L1 (in words) [1]: does react somewhat; BUdR Incorporation (A450) of iLRP-specific T cell clone L1 cells, Expt. 1 [1]: .09 A450; BUdR Incorporation (A450) of iLRP-specific T cell clone L1 cells, Expt. 2 [1]: .07 A450
RTWEKLLLAARA [P8 (aa 53-64)]	–	–	–	–	–	–	Proliferation of clone M3 (in words) (CD8 T cell clone M3 (Tc)): proliferated to iLRP peptides 7 and 8 equally well
SAAPTAQATEWV [P30 (277-288)]	–	–	–	–	–	–	Response of clone H1 (in words) (Th1 clone H1): responded best
SPLRYVDIAIPC [Peptide 31-5]	.024 A450	Tc & TH1	.016 A450	.016 A450	.95 A450	.91 A450	Response of Th1 clone H3 (in words) ([6]; text on Table 8): strongest response; Proliferation of Tc clone L4 (in words) [7]: proliferated to peptides 31-5 and 31-6 equally
TIALCNTDSPLR [Peptide 31-3]	.90 A450	Tc	.015 A450	.017 A450	.016 A450	.016 A450	Proliferative response of Tc clone L5 (in words) ([2]; text on Table 8): equal proliferative response
TPIAGRFTPGTF [P19 (aa 97-108)]	–	–	–	–	–	–	Proliferation of clone M11 (in words) [8]: proliferated equally well
VNLPTIALCNTD [Peptide 31-2]	.016 A450	Ts	.22 A450	.24 A450	.015 A450	.018 A450	Proliferation of Ts clone H2 (in words) ([4]; text on Table 8): proliferated equally; Proliferation of Ts clone H4 (in words) ([5]; text on Table 8): proliferated equally
YIYKRKSDGTYI [P4 (aa 37-48)]	–	–	–	–	–	–	Proliferation of clone H5 (in words) (CD8 T cell clone H5 (Ts)): proliferated to iLRP peptides 3 and 4 equally well
YVDIAIPCNNKG [Peptide 31-6]	.015 A450	Tc	.015 A450	.016 A450	.03 A450	.90 A450	Proliferation of Tc clone L4 (in words) [7]: proliferated to peptides 31-5 and 31-6 equally
iLRP truncated protein 13: truncated iLRP protein, a.a.'s 242-295; negative control	.016 A450	–	.017 A450	.018 A450	.015 A450	.017 A450	BUdR incorporation (A450), clone L5 (Tc) [2, 9]: .015 A450; BUdR incorporation (A450), clone H2 (Ts) [4, 9]: .015 A450; BUdR Incorporation (A450) of iLRP-specific T cell clone L1 cells, Expt. 1 [1]: .016 A450; BUdR Incorporation (A450) of iLRP-specific T cell clone L1 cells, Expt. 2 [1]: .014 A450; BUdR incorporation (A450), clone H4 (Ts) [5, 9]: .016 A450; BUdR incorporation (A450), clone H3 (Th1) [6, 9]: .017 A450; BUdR incorporation (A450), clone L4 (Tc) [7, 9]: .017 A450

— US8709405B2, “Cancer vaccines containing epitopes of oncofetal antigen” (South Alabama Medical Science Foundation, priority 2002, dated 2014)
